Source: PMC7906907, “Targeting STAT3 by a small molecule suppresses pancreatic cancer progression” (Oncogene, 2021)

What was measured:
[1] = tested on: Pancreatic cancer cells (CAPAN-2, PANC-1, MIAPACA-2, BXPC-3, HPAC, and CFPAC-1); experiment: MTS proliferation assay, pancreatic cancer cells; type: cell-based; conditions: 48 h
Description: Fig. 4 N4 suppresses pancreatic cancer cell proliferation and migration and induces apoptosis. A Pancreatic cancer cells (CAPAN-2, PANC-1, MIAPACA-2, BXPC-3, HPAC, and CFPAC-1) and normal cells (HPNE, HAF) were incubated with the indicated concentration of N4 for 48 h. MTS assays were performed to detect the N4-mediated inhibition of cell proliferation. Data are shown as mean ± SD, *P < 0.05, **P < 0.01, ***P < 0.001, ****P < 0.0001, n.s. not significant by one-way ANOVA followed by multiple comparisons. B, C CAPAN-2, PANC-1, and MIAPACA-2 cells were treated with N4 (B) or C188-9 (C) for 7 days. The cells fixed and stained, and colony numbers were calculated. Experiments were carried out in triplicate with identical results obtained. […] Apoptotic cells were analyzed as described in Materials and Methods. […] In F, after 48 h transfection, transfected cells were seeded in 96-well plates, and cells were enumerated at day 1, day 2, and day 4, In G, different cells transfected with different siRNA were treated with the indicated concentrations of N4, and cell viability measured after a 48 h treatment. Data are expressed as mean ± SD, *P < 0.05, ***P < 0.001, n.s. not significant by one-way ANOVA followed by multiple comparisons. […] Data are expressed as mean ± SD, *P < 0.05, ***P < 0.001, n.s. not significant; Student’s t tests were performed. […]

[2] = tested on: STAT3 nuclear translocation; experiment: Immunofluorescence of STAT3 nuclear translocation; type: cell-based; conditions: PANC-1 cells, 2 μM for 24 h, then IL-6
Description: Fig. 2 N4 inhibits STAT3 activation in pancreatic cancer cells. A PANC-1, CAPAN-2, and BXPC-3 cells were treated with the indicated concentrations of N4 for 24 h. Then, p-STAT3 (Y705), p-STAT3 (S727), and STAT3 were detected by western blot assays with glyceraldehyde 3-phosphate dehydrogenase (GAPDH) used as the loading control. B Pancreatic cancer cells were starved in a medium lacking fetal bovine serum (FBS; basic medium) for 24 h, and then pretreated with N4 in basic medium for 24 h. Then, stimulated with IL-6 (20 ng/mL) for 30 min and lysed for western blot analysis using the indicated antibodies. C Expression levels of STAT3 downstream genes were detected by western blot following treatment of PANC-1 and CAPAN-2 cells with N4. D PANC-1 cells were seeded and allowed to attach, and then pretreated with 2 μM of N4 in FBS-free medium for 24 h. The cells were stimulated for 30 min using IL-6 (20 ng/mL). […] The samples were photographed and analyzed. […] E After 24 h treatment with 2 μM N4, PANC-1 cells were stimulated with IL-6 (20 ng/mL) for 30 min, and the cytoplasmic and nuclear extractions were analyzed by western blot. p-STAT3 (Y705) was used to detect STAT3, and GAPDH and H3 were used as the cytoplasm and nucleus internal control, respectively.
Immunofluorescence staining was performed as previously described. […] Images were recorded by confocal microscopy (Leica).

`COc1cc2c(cc1C(=O)Nc1cccc3cccnc13)CCC1C(C)(C)C(=O)C(C#N)=C[C@]21C` (some centres unmarked) [N4] was tested. Which “proliferation of pancreatic cancer cells” value [1] did it give?
Its value is “effectively inhibited”.

And the STAT3 nuclear translocation [2]?
Its STAT3 nuclear translocation is “substantially impaired”.
